{"source": "paper PMC5740381", "about": "(Antimicrobial Agents and Chemotherapy, 2017)", "key": {"HIV-1 IIIB strain": {"system": "HIV-1 IIIB strain", "experiment": "HIV-1 antiviral cytoprotection assay, CEM-SS cells", "assay_type": "cell-based, human immunodeficiency virus type 1", "settings": "Human immunodeficiency virus 1, IIIB, read-out: Mean EC50 ± SD"}, "HBV": {"system": "HBV", "experiment": "Anti-HBV assay, extracellular HBV DNA by quantitative PCR", "assay_type": "cell-based", "settings": "Hepatitis B virus, read-out: Mean EC50 ± SD"}, "[1]": {"system": "HCV replicons with genotype 2b patient proteases", "experiment": "Transient replicon assay with proteases from HCV-infected patients", "assay_type": "cell-based", "settings": "Hepatitis C virus, read-out: EC50 Range", "source_text": "(§1) Each of the NS3 gene sequences from genotypes 1, 2, and 4, with the exception of two genotype 2b sequences, was derived from serum or plasma from an HCV-infected patient by bulk PCR amplification, producing a population of sequences representing the viral quasispecies. Two genotype 2b sequences were synthesized based on the consensus sequences of the respective samples. One genotype 3a sequence was synthesized based on a consensus sequence from the sequences available in the Los Alamos HCV sequence database, and another genotype 3a sequence was a clonal sequence derived from a patient sample. The genotype 5a sequence (strain SA13) was synthesized based on the published sequence of the HCV isolate ([48]).\nFor the analysis of NS3 sequences from patients, we defined a polymorphism to be an amino acid difference in the sequence of a baseline sample relative to the sequence of the appropriate HCV subtype reference sequence: genotype 1a H77 (GenBank accession number NC_004102), genotype 1b Con1 (GenBank accession number AJ238799), genotype 2a JFH-1 (GenBank accession number AB047639), genotype 2b HC-J8 (GenBank accession number D10988), genotype 3a S52 (GenBank accession number GU814263), genotype 4a ED43 (GenBank accession number GU814265), genotype 4d QC382 (GenBank accession number FJ462437), and genotype 5a SA13 (GenBank accession number AF064490). […]"}, "[2]": {"system": "HCV replicons with genotype 4a patient proteases", "experiment": "Transient replicon assay with proteases from HCV-infected patients", "assay_type": "cell-based", "settings": "Hepatitis C virus", "source_text": "as §1\nTransient replicons containing NS3 from clinical samples from HCV genotype 1a- and 1b-infected patients were described previously ([28]).\nFor the analysis of NS3 sequences from patients, we defined a polymorphism to be an amino acid difference in the sequence of a baseline sample relative to the sequence of the appropriate HCV subtype reference sequence: genotype 1a H77 (GenBank accession number NC_004102), genotype 1b Con1 (GenBank accession number AJ238799), genotype 2a JFH-1 (GenBank accession number AB047639), genotype 2b HC-J8 (GenBank accession number D10988), genotype 3a S52 (GenBank accession number GU814263), genotype 4a ED43 (GenBank accession number GU814265), genotype 4d QC382 (GenBank accession number FJ462437), and genotype 5a SA13 (GenBank accession number AF064490). […] All DNA sequencing was performed by the Sanger sequencing method."}, "[3]": {"system": "HCV replicons containing proteases from 40 samples, genotypes 1 to 5", "experiment": "Transient replicon assay with patient proteases, all 40 samples", "assay_type": "cell-based", "settings": "Hepatitis C virus, 40 clinical samples", "source_text": "as §1, with “[…]. Each” for “Each”\nTransient replicons containing NS3 from clinical samples from HCV genotype 1a- and 1b-infected patients were described previously ([28]). For the transient replicons containing NS3/4A from samples from genotype 3a-infected patients, the first 251 amino acids of NS3 and the region encoding NS4A amino acids 21 to 32 (numbered relative to the NS4A coding region) from these HCV samples were cloned to replace the corresponding residues from the backbone of a genotype 1b Con1 shuttle vector. […]"}, "[4]": {"system": "HCV genotype 2a replicon cells", "experiment": "Drug-resistant colony selection in replicon cells", "assay_type": "cell-based, Hepatitis C virus", "source_text": "(§2) . After approximately 3 weeks of treatment, the surviving replicon colonies in one plate for each selection condition were stained with crystal violet and counted, whereas approximately 20 to 30 colonies in a replicate plate or most of the colonies, if less than 20 colonies survived the selection, were picked and further expanded for genotyping. The expanded colonies were lysed in CellsDirect lysis buffer (Invitrogen, MA), and the NS3-coding region from each colony was amplified by reverse transcription-PCR and sequenced. For genotype 1a, 1b, 2a, and 5a colonies, the full-length NS3 sequence was determined, whereas for colonies of the chimeric replicon containing the N-terminal region of NS3 from genotype 2b, 3a, 4a, or 6a, the sequence encoding the NS3 N-terminal region was determined. We defined a substitution in a replicon to be an amino acid difference in a sequence from a posttreatment sample relative to the sequence of the corresponding untreated sample. For resistance selection studies, NS3 substitutions detected at the following amino acid positions associated with resistance to the HCV PI class in >2 colonies in each replicon selection are reported: 36, 43, 54, 55, 56, 80, 122, 155, 156, and 168. In addition, substitutions detected at other amino acid positions in the NS3 protease domain in >2 colonies in each replicon selection are also reported."}, "[5]": {"system": "HCV genotype 2b replicon cells", "experiment": "Drug-resistant colony selection in replicon cells", "assay_type": "cell-based, Hepatitis C virus", "source_text": "as §2"}, "[6]": {"system": "HCV genotype 4a replicon cells", "experiment": "Drug-resistant colony selection in replicon cells", "assay_type": "cell-based, Hepatitis C virus", "source_text": "as §2"}, "[7]": {"system": "HCV genotype 6a replicon cells", "experiment": "Drug-resistant colony selection in replicon cells", "assay_type": "cell-based, Hepatitis C virus", "source_text": "as §2"}}, "note": "Read-outs that look alike come from different tables or passages of the source.", "data": [{"compound": "CC(C)(C)[C@@H]1NC(=O)O[C@@H]2CCC[C@H]2OC/C=C/C(F)(F)c2nc3ccccc3nc2O[C@@H]2C[C@@H](C(=O)N[C@]3(C(=O)NS(=O)(=O)C4(C)CC4)C[C@H]3C(F)F)N(C2)C1=O", "note": "[Glecaprevir, (3aR,7S,10S,12R,21E,24aR)-7-tert-butyl-N-[(1R,2R)-2-(difluoromethyl)-1-{[(1-methylcyclopropyl)sulfonyl]carbamoyl}cyclopropyl]-20,20-difluoro-5,8-dioxo-2,3,3a,5,6,7,8,11,12,20,23,24a-dodecahydro-1H,10H-9,12-methanocyclopenta[18,19][1,10,17,3,6]trioxadiazacyclononadecino[11,12-b]quinoxaline-10-carboxamide]", "values": [{"measurement": "EC50", "setting": "HIV-1 IIIB strain", "value": "> 22000", "unit": "nM"}, {"measurement": "EC50", "setting": "HBV", "value": "> 32000", "unit": "nM"}, {"measurement": "EC50", "setting": "[1]", "value": "1.4 to 3.2", "unit": "nM"}, {"measurement": "EC50", "setting": "[2]; read-out: EC50 Median, subtype 4a, T54S, 1 sample", "value": 0.44, "unit": "nM"}, {"measurement": "EC50", "setting": "[2]; read-out: EC50 Median, subtype 4a, no polymorphism, 5 samples", "value": 0.39, "unit": "nM"}, {"measurement": "EC50", "setting": "[2]; read-out: EC50 Range, subtype 4a, no polymorphism, 5 samples", "value": "0.31 to 0.55", "unit": "nM"}, {"measurement": "EC50", "setting": "[3]; read-out: EC50 range, overall", "value": "0.05 to 3.8", "unit": "nM"}, {"measurement": "EC50", "setting": "[3]; read-out: Overall median EC50", "value": 0.3, "unit": "nM"}, {"measurement": "Colony survival", "setting": "[4]; 10× EC50", "value": ">0.05", "unit": "%"}, {"measurement": "Colony survival", "setting": "[4]; 100× EC50", "value": ">0.05", "unit": "%"}, {"measurement": "Colony survival", "setting": "[5]; 10× EC50", "value": ">0.05", "unit": "%"}, {"measurement": "Colony survival", "setting": "[5]; 100× EC50", "value": ">0.05", "unit": "%"}, {"measurement": "Colony survival", "setting": "[6]; 10× EC50", "value": 0.0015, "unit": "%"}, {"measurement": "Colony survival", "setting": "[6]; 100× EC50", "value": 0.0018, "unit": "%"}, {"measurement": "Colony survival", "setting": "[7]; 10× EC50", "value": 0.018, "unit": "%"}, {"measurement": "Colony survival", "setting": "[7]; 100× EC50", "value": 0, "unit": "%"}]}]}
